The values below are quoted from earlier work in patent US20060193783A1, “Low dose corticosteroid composition” (priority 2003, published 2006).

The conditions of data set [1]: used nasally.

For `CN1CCCC1=O` [N-methyl pyrrolidone], the nasal irritation result in data set [1] was “does not cause any nasal irritation”.
`CCCC1O[C@@H]2C[C@H]3[C@@H]4CCC5=CC(=O)C=C[C@]5(C)[C@H]4[C@@H](O)C[C@]3(C)[C@]2(C(=O)CO)O1` (some centres unmarked) [Budesonide]: the solubility in water entry is “virtually insoluble in water”.
